# Test results: patent publication US10335382B2, “Use of hydrogen sulfide synthesis inhibitors for cancer therapy” (THE BOARD OF REGENTS OF THE UNIVERSITY OF TEXAS SYSTEM, priority 2013, dated 2019)
# Counter-ions that a name gives are not always drawn.
# Molecular target: T1, CBS (Homo sapiens, UniProt P35520)
# T1 sequence (P35520 1-551): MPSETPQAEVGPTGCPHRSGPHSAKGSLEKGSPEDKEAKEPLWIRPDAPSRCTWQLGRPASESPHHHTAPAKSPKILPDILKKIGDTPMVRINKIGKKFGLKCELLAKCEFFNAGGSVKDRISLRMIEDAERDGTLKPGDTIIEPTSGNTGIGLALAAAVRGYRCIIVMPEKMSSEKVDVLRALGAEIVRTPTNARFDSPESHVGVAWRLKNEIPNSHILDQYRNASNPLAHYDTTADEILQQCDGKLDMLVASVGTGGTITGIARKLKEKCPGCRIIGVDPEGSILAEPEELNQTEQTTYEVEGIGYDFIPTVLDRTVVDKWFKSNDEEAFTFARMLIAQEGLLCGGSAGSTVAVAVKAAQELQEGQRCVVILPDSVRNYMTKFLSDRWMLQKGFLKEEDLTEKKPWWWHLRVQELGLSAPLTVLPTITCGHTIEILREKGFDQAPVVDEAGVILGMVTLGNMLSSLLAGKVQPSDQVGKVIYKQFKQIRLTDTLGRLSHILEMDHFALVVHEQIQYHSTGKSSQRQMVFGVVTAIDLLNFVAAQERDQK
# Assay: CBS inhibitor screen: H2S production by recombinant CBS (methylene blue assay)
# Assay type: biochemical
# Parameters: These studies used full-length human CBS enzyme; made in house; host or cells: E. coli BL21 (DE3) Codon Plus
# Details: 100 μM; homocysteine-induced H2S production; LOPAC library screen
# From the text: Studies have been performed characterizing, in detail, the specificity and selectivity of all known H2S biosynthesis inhibitors, using recombinant CBS and CSE enzymes. These studies used full-length human CBS enzyme, and a colorimetric ‘capture’ reaction of the H2S produced by these enzymes, an assay generally known as the ‘methylene blue assay’. This assay is used in a 96-well plate format, as well as in combination with a second screening method based on a fluorescent dye.
# Human recombinant CBS is expressed as described (Asimakopoulou et al, (2013) Br J Pharmacol. 169(4):922-32). A library of pharmacologically active compounds (e.g., LOPAC library, Sigma; 1240 compounds) is tested on homocysteine-induced H2S production. In certain aspects the assay is in a 96-well format. In certain aspects H2S production is measured by the methylene blue assay (Asimakopoulou et al., (2013) Br J Pharmacol. 169(4):922-32).
# Plasmids, bacterial strains and media. E. coli BL21 (DE3) Codon Plus is used as a host strain to express recombinant human CSE or CBS. CSE cDNA was cloned into pGEX-4T3 and CBS into pGEX-Kg to create N-terminal GSH-S-transferase (GST) fusion proteins. The expression vectors were transformed and plated on LB-agar plates, supplemented with ampicillin (100 μg/mL).
# The expression and purification of CSE and CBS is performed as described previously with modifications (Frank et al., (2008) Arch Biochem Biophys 470:64-72; Huang et al., (2009) J Mol Biol 396: 708-18). Briefly, BL21(DE3) Codon Plus cells containing either the expression vector pGEX-4T3/GST-CSE or pGEX-Kg/GST-CBS are grown at 37° C. and 180 r.p.m. in LB broth medium containing 100 μg/mL ampicillin to an absorption of 0.6-0.8 at 600 nm. In addition, 0.3 mM d-ALA is added to the culture containing pGEX-Kg/GST-CBS. Then protein expression is induced by addition of 0.1 mM IPTG. Cells containing pGEX-4T-3/GST-CSE are incubated overnight at 18° C., whereas cells containing pGEXKg/GST-CBS are incubated overnight at 30° C. Culture is then centrifuged at 4° C. and 5000×g for 10 min and the cell pellet was resuspended in PBS (140 mM NaCl, 2.7 mM KCl, 10 mM Na2HPO4, 1.8 mM KH2PO4, pH 7.8) and stored at −20° C. overnight. After thawing, the suspension is sonicated in lysis buffer containing PBS and protease inhibitor cocktail for GST-CSE and PBS, 5 mM DTT, 1% Triton X-100, […] and protease inhibitor cocktail for GST-CBS. After centrifugation at 4° C. for 30 min, the soluble fraction containing either the GST-CSE or the GST-CBS recombinant protein is loaded onto a GSTrap FF 1 mL affinity column that has been equilibrated with binding buffer PBS. The column was consecutively washed with five column volumes of binding buffer. Proteins attached to the column, including GST-CSE or GST-CBS recombinant proteins, are eluted with five column volumes of elution buffer (50 mM Tris-HCl, 10 mM reduced GSH, pH 8.0) and then dialysed and concentrated in 10 mM sodium phosphate buffer pH 8.2 and DTT 1 mM. The purity of the recombinant enzymes was checked by SDS-PAGE on 12% polyacrylamide gels after staining of protein bands with Coomassie Blue R-250. Protein concentration was determined using the DC protein assay kit.
# H2S determination is performed according to Stipanuk and Beck ((1982) Biochem J 206:267-77) with some modifications. In the case of the CSE enzyme, an assay consist of a 100 μL reaction mixture containing 5 μg of the purified CSE enzyme, 0.01 mM PLP, 1 mM L-cys, and 50 mM sodium phosphate buffer pH 8.2. For the CBS enzyme, the reaction mixture contains the same as for the CSE plus 1 mM homocysteine. The inhibitors can be added to the reaction before L-cys is added to the solution. Reactions are initiated by transferring the reaction solutions from ice to a 37° C. shaking water bath. After incubation at 37° C. the reaction is terminated by adding 1% ZnAc to trap H2S followed by 10% TCA to precipitate proteins. […]
row,Compound,Inhibition of CBS activity at 100 μM
1,CC[N+](C)(CC)CCC[n+]1c(-c2ccccc2)c2cc(N)ccc2c2ccc(N)cc21.[I-].[I-] [Propidium iodide],41%
2,"CN(N=O)c1ccc(O)c(O)c1 [Me-3,4-dephostatin]",85%
3,NC(Cc1cc(O)c(O)cc1O)C(=O)O (racemic) [6-Hydroxy-DL-DOPA],77%
4,Cl.NC[C@@H]1O[C@H](C23CC4CC(CC(C4)C2)C3)Cc2c1ccc(O)c2O [A-77636 hydrochloride],30%
5,C[n+]1c2cc(N)ccc2cc2ccc(N)cc21 [Acriflavinium],64%
6,O=C1Nc2ccc(I)cc2/C1=C/c1cc(Br)c(O)c(Br)c1 [GW5074],87%
7,CN1CC[C@@]2(C)c3cc(O)ccc3N(C)[C@@H]12.O=C(O)/C=C/C(=O)O [Eseroline fumarate],60%

# Same assay, conditions: 100 μM; homocysteine-induced H2S production; LOPAC library screen; read-out: Inhibition of CBS activity at 100 μM
row,Compound,inhibition at 100 µM
1,O=C(O)C1=CC(=C(c2ccc(O)c(C(=O)O)c2)c2ccc(O)c(C(=O)O)c2)C=CC1=O [Aurintricarboxylic acid],75%
2,CN(C)[C@@H]1C(O)=C(C(N)=O)C(=O)[C@@]2(O)C(O)=C3C(=O)c4c(O)ccc(Cl)c4[C@@H](O)[C@H]3C[C@@H]12 [Demeclocycline hydrochloride],96%
3,CC1=C(/C=C/C(C)=C/C=C/C(C)=C/C(=O)O)C(C)(C)CCC1 [Retinoic acid],43%
4,COc1cccc2c1C(=O)c1c(O)c3c(c(O)c1C2=O)C[C@@](O)(C(=O)CO)C[C@@H]3O[C@H]1C[C@H](N)[C@H](O)[C@H](C)O1 [Doxorubicin],52%
5,CC[C@H](c1ccc(O)cc1)[C@@H](CC)c1ccc(O)cc1 [Hexestrol],50%
6,CC(C)C(=O)c1c(C(C)C)nn2ccccc12 [Ibudilast],30%
7,C[C@H]1c2cccc(O)c2C(=O)C2=C(O)[C@]3(O)C(=O)C(C(N)=O)=C(O)[C@@H](N(C)C)[C@@H]3[C@@H](O)[C@@H]21 [Doxycycline],57%
8,Cc1cc(C(C#N)c2ccc(Cl)cc2)c(Cl)cc1NC(=O)c1cc(I)cc(I)c1O (centres unmarked) [Closantel],72%
9,Cc1c(C)c2c(c(C)c1O)CCC(C)(COc1ccc(CC3SC(=O)NC3=O)cc1)O2 (centres unmarked) [Troglitazone],30%
10,CC(C)(Sc1ccc(CCN(CCCCC2CCCCC2)C(=O)NC2CCCCC2)cc1)C(=O)O [GW7647],73%
11,CN1CC[C@@]2(C)c3cc(OC(=O)Nc4ccccc4)ccc3N(C)[C@@H]12 [Phenserine],53%
12,C[C@H](CCC(=O)O)[C@H]1CC[C@H]2[C@@H]3CC[C@@H]4C[C@H](O)CC[C@]4(C)[C@H]3CC[C@]12C [Lithocholic acid],42%
13,C[C@]12CC[C@@H]3c4ccc(O)cc4CC[C@H]3[C@@H]1CC[C@@H]2O [Estradiol],53%
14,CCC1(c2ccccc2)NC(=O)N(C)C1=O (centres unmarked) [Mephenytoin],32%
15,"COC1=C(OC)C(=O)c2ccccc2C1=O [2,3-Dimethoxy-1,4-naphthoquinone]",98%
16,COc1cc(C(=O)NS(=O)(=O)c2ccccc2C)ccc1Cc1cn(C)c2ccc(NC(=O)OC3CCCC3)cc12 [Zafirlukast],81%
17,C=C1CC[C@H](O)C/C1=C/C=C1\CCC[C@]2(C)[C@@H]([C@H](C)CCCC(C)(C)O)CC[C@@H]12 [Calcifediol],32%
18,C=C(c1ccc(C(=O)O)cc1)c1cc2c(cc1C)C(C)(C)CCC2(C)C [Bexarotene],58%
19,Cc1ccc(C(=O)Nc2ccc(S(=O)(=O)O)c3cc(S(=O)(=O)O)cc(S(=O)(=O)O)c23)cc1NC(=O)c1cccc(NC(=O)Nc2cccc(C(=O)Nc3cc(C(=O)Nc4ccc(S(=O)(=O)O)c5cc(S(=O)(=O)O)cc(S(=O)(=O)O)c45)ccc3C)c2)c1 [Suramin sodium],57%
20,C[C@@](Cc1ccc(O)c(O)c1)(NN)C(=O)O [Carbidopa],45%
21,C[C@@H](N)[C@H]1CC[C@H](C(=O)Nc2ccncc2)CC1 [Compound Y-27632],94%
22,CN(C)[C@@H]1C(O)=C(C(N)=O)C(=O)[C@@]2(O)C(O)=C3C(=O)c4c(O)cccc4[C@@](C)(O)[C@H]3C[C@@H]12 [Tetracycline],43%
23,CC(C)=CC[C@@H](O)C1=CC(=O)c2c(O)ccc(O)c2C1=O [Shikonin],51%
24,O=C(c1ccc(OCCN2CCCCC2)cc1)c1c(-c2ccc(O)cc2)sc2cc(O)ccc12 [Raloxifene],60%

# Same assay, conditions: read-out: Inhibition of CBS activity at 100 μM
row,Compound,inhibition at 100 µM
1,CC(=O)c1c(O)c(C)c(O)c(Cc2c(O)c3c(c(C(=O)/C=C/c4ccccc4)c2O)OC(C)(C)C=C3)c1O [Rottlerin],96%
